Drawing on patent publication US6599925B2 (Wyeth, priority 2001, dated 2003), this text covers IC50, melting point and inhibition for 14 compounds.

Structures can show the parent of a compound that is named as a salt. Bounds are passed on as bounds.

Data set [1] addresses T1, recombinant human plasminogen activator inhibitor-1 (PAI-1) (Homo sapiens, UniProt P05121).
T1 construct: purchased Molecular Innovations, Royal Oak, Mich
Kind of data set: Primary Screen for the PAI-1 Inhibition (chromogenic tPA assay). The data set is classed as biochemical. To be noted: for IC50: footnote b: determined by a modification of the Primary Screen for PAI-1 Inhibition; for inhibition at 25 µM: 25 μM test compound. The method, then:
Primary Screen for the PAI-1 Inhibition
Test compounds are dissolved in DMSO at a final concentration of 10 mM, then diluted 100×in physiologic buffer. The inhibitory assay is initiated by the addition of the test compound (1-100 μM final concentration, maximum DMSO concentration of 0.2%) in a pH 6.6 buffer containing 140 nM recombinant human plasminogen activator inhibitor-1 (PAI-1; Molecular Innovations, Royal Oak, Mich.). Following a 1 hour incubation at room temperature, 70 nM of recombinant human tissue plasminogen activator (tPA) is added, and the combination of the test compound, PAI-1 and tPA is incubated for an additional 30 minutes. Following the second incubation, Spectrozyme-tPA (American Diagnostica, Greenwich, Conn.), a chromogenic substrate for tPA, is added and absorbance read at 405 nm at 0 and 60 minutes. Relative PAI-1 inhibition is equal to the residual tPA activity in the presence of the test compounds and PAI-1. Control treatments include the complete inhibition of tPA by PAI-1 at the molar ratio employed (2:1), and the absence of any effect of the test compound on tPA alone.

T1 sequence (P05121 24-402): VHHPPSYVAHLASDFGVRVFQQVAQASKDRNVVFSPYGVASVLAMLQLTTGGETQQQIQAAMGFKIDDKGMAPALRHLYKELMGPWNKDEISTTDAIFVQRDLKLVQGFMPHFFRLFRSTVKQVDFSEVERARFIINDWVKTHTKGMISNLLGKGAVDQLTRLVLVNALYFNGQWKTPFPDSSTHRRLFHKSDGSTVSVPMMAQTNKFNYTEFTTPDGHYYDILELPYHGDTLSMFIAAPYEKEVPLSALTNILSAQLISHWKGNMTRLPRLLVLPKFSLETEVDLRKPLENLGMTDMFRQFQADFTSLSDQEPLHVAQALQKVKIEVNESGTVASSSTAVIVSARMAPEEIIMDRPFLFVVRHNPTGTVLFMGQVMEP

For `CCCCC(=O)c1c(-c2ccc3c(Br)c(OCc4nnn[nH]4)ccc3c2)oc2ccccc12` [Example 1, 1-{2-[5-Bromo-6-(1H-1,2,3,4-tetraazol-5-ylmethoxy)-2-naphthyl]-1-benzofuran-3-yl}-1-pentanone], in data set [1], the IC50 came to 7.7 µM. Compound `CCCCC(=O)c1c(-c2ccc3c(-c4ccc(C(F)(F)F)cc4)c(OCc4nnn[nH]4)ccc3c2)oc2ccccc12` [Example 18, 1-(2-{6-(1H-1,2,3,4-Tetraazol-5-ylmethoxy)-5-[4-(trifluoromethyl)phenyl]-2-naphthyl}-1-benzofuran-3-yl)-1-pentanone] registered a melting point of 189 to 191 °C. Also, the IC50 in data set [1] was found to be 6 µM. In the case of `CC(C)(C)CC(=O)c1c(-c2ccc3c(Br)c(OCC(=O)O)ccc3c2)oc2ccccc12` [Example 8, 2-({1-Bromo-6-[3-(3,3-dimethylbutanoyl)-1-benzofuran-2-yl]-2-naphthyl}oxy)acetic acid], the melting point was 151 to 153 °C. The IC50 in data set [1] is 11.9 µM. In the case of `O=C(O)COc1ccc2cc(-c3oc4ccccc4c3C(=O)CC3CCCC3)ccc2c1` [Example 10, 2-({6-[3-(2-Cyclopentylacetyl)-1-benzofuran-2-yl]-2-naphthyl}oxy)acetic acid], the melting point fell in the range of 177 to 178 °C. In the case of `CCCCC(=O)c1c(-c2ccc3cc(OCc4nnn[nH]4)ccc3c2)oc2ccc(Cl)cc12` [Example 32, 1-{5-Chloro-2-[6-(1H-tetrazol-5-ylmethoxy)-naphthalen-2-yl]-benzofuran-3-yl}-pentan-1-one], the melting point lay within 178 to 180 °C. Moreover, the inhibition at 25 µM in data set [1] amounted to 39%. In the same order, the values of `O=C(O)C(Cc1ccccc1)Oc1ccc2cc(-c3oc4ccccc4c3Br)ccc2c1Br` (stereo not drawn) [Example 28, 2-{[1-Bromo-6-(3-bromo-1-benzofuran-2-yl)-2-naphthyl]oxy}-3-phenylpropanoic acid] are 206 to 209 °C and 56%. As for `CCCCCc1c(-c2ccc3c(C)c(OCc4nnn[nH]4)ccc3c2)oc2ccccc12` [Example 21, 5-({[1-Methyl-6-(3-pentyl-1-benzofuran-2-yl)-2-naphthyl]oxy}methyl)-1H-1,2,3,4-tetraazole], the melting point is 169 to 171 °C (dec.). The inhibition at 25 µM in data set [1] worked out at 31%. For `O=C(O)COc1ccc2cc(-c3oc4ccccc4c3C(=O)c3ccccc3)ccc2c1` [Example 26, {[6-(3-benzoyl-1-benzofuran-2-yl)-2-naphthyl]oxy}acetic acid], the melting point was 178 to 181 °C. Further, the inhibition at 25 µM in data set [1] came to 49%. In the same order, the values of `O=C(c1ccccc1)c1c(-c2ccc3c(Br)c(OCc4nnn[nH]4)ccc3c2)oc2ccccc12` [Example 27, {2-[5-Bromo-6-(1H-tetraazol-5-ylmethoxy)-2-naphthyl]-1-benzofuran-3-yl}(phenyl) methanone] are > 183 °C (dec.) and 35%. With `CCCCCc1c(-c2ccc3c(Br)c(OCc4nn[nH]n4)ccc3c2)oc2ccccc12` [Example 37], the IC50 in data set [1] was found to be 4.59 µM.

As for `CC(C)CC(=O)c1c(-c2ccc3c(Br)c(OCC(=O)O)ccc3c2)oc2ccccc12` [Example 7], in data set [1], the 50% inhibitory concentration (IC50) turned out to be 14.7 µM. As to `Brc1c(OCc2nnn[nH]2)ccc2cc(-c3oc4ccccc4c3CCC3CCCC3)ccc12` [Example 12, 5-[({1-Bromo-6-[3-(2-cyclopentylethyl)-1-benzofuran-2-yl]-2-naphthyl}oxy)methyl]-1H-1,2,3,4-tetraazole], the melting point lay within 192 to 194 °C. `CC(C)CC(=O)c1c(-c2ccc3cc(OCC(=O)O)cc(Br)c3c2)oc2ccccc12` [Example 7] returned a melting point of 140 to 142 °C. In the case of `CCCCC(=O)c1c(-c2ccc3c(-c4ccc(C(F)(F)F)cc4)c(OCC(=O)O)ccc3c2)oc2ccccc12` (as salt: sodium) [Example 15, 2-({6-(3-Pentanoyl-1-benzofuran-2-yl)-1-[4-(trifluoromethyl)phenyl]-2-naphthyl}oxy) acetic acid, sodium salt], the melting point was 274 to 275 °C (dec.).

By IC50 is commonly meant the concentration that inhibits the measured activity by half. One may read the melting point as the temperature, or range, at which the solid turns liquid. By inhibition is commonly meant the share of the control response that was lost under treatment.
